{
  "source": "patent US20060269907A1",
  "about": "“Decontamination of biological fluids using diphenylpyrilium compounds” (priority 2003, published 2006)",
  "key": {"red blood cells": {"system": "red blood cells", "settings": "cited from earlier work"}, "E. coli": {"system": "E. coli", "assay": "Bacterial photoinactivation in red cell suspensions", "format": "cell-based"}, "extracellular BVDV": {"system": "extracellular BVDV", "format": "cell-based"}, "RBCs [1]": {"system": "RBCs", "settings": "n = 4"}, "extracellular DHBV": {"system": "extracellular DHBV", "assay": "Photoinactivation of extracellular DHBV in RBC suspensions", "format": "cell-based", "settings": "10 μM TP; 200 μM DP; 20-percent hct RBCs in Erythrosol; 1.1 J/cm^2 light"}, "S. marcescens": {"system": "S. marcescens", "format": "cell-based"}, "Y. enterocolitica": {"system": "Y. enterocolitica", "assay": "Bacterial photoinactivation in red cell suspensions", "format": "cell-based"}, "S. liquefaciens": {"system": "S. liquefaciens", "format": "cell-based"}, "S. epidermidis": {"system": "S. epidermidis", "format": "cell-based"}, "all tested viruses": {"system": "all tested viruses", "format": "cell-based"}, "extracellular HIV": {"system": "extracellular HIV", "assay": "Photoinactivation of extracellular HIV in RBC suspensions", "format": "cell-based, HIV-1", "settings": "80 μM TP; 200 μM DP; 20-percent hct RBCs in Erythrosol; 1.1 J/cm^2 light"}, "intracellular HIV": {"system": "intracellular HIV", "assay": "Photoinactivation of intracellular HIV in RBC suspensions", "format": "cell-based, HIV-1", "settings": "80 μM TP; 200 μM DP; 20-percent hct RBCs in Erythrosol; 1.1 J/cm^2 light"}, "extracellular VSV": {"system": "extracellular VSV", "format": "cell-based, Vesicular Stomatitis Virus"}, "[2]": {"system": "gram positive and gram negative organisms", "format": "cell-based"}, "red cells [3]": {"system": "red cells", "settings": "n=10"}, "P. fluorescens": {"system": "P. fluorescens", "format": "cell-based"}, "red cells [4]": {"system": "red cells"}, "S. aureus": {"system": "S. aureus", "assay": "Bacterial photoinactivation in red cell suspensions", "format": "cell-based"}, "extracellular PRV": {"system": "extracellular PRV", "format": "cell-based, Pseudorabies virus"}, "D. radiodurans": {"system": "D. radiodurans", "assay": "Bacterial photoinactivation in red cell suspensions", "format": "cell-based", "settings": "160 μM compound 2; RBCs 20% hematocrit in Erythrosol; 2 min 8.9 mW/cm^2 red light"}, "intracellular VSV": {"system": "intracellular VSV", "format": "cell-based, Vesicular Stomatitis Virus"}, "RBCs [5]": {"system": "RBCs", "assay": "Spectroscopic assay of TP binding to RBCs", "settings": "200 μM DP; 160 μM TP; 20-percent hct RBCs in Erythrosol"}, "[6]": {"settings": "100 μM TP, 200 μM DP and 1.1 J/cm^2 red light, 20% hct RBCs in Erythrosol, n = 4"}, "[7]": {"settings": "160 μM compound 2, RBCs 20% hematocrit in Erythrosol, 2 min 8.9 mW/cm^2 red light"}},
  "note": "Like-named read-outs stand apart in the source and are kept apart here.",
  "data": [
    {"compound": "Cc1cc(=[N+](C)C)cc2sc3cc(N(C)C)cc(C)c3nc1-2.[Cl-]", "note": "[dimethylmethylene blue]", "values": [
      {"measurement": "hemolysis", "setting": "red blood cells; dye and light, after 6 week refrigerated storage in ADSOL", "result": "roughly 25%"},
      {"measurement": "hemolysis", "setting": "red blood cells; following 6 weeks of 1-6° C. storage in Erythrosol", "result": "about 2%"},
      {"measurement": "hemolysis", "setting": "red blood cells; six weeks of 1-6° C. storage in Erythrosol, RBCs pre-incubated with quinacrine", "result": "approximately 1.2%"}
    ]},
    {"compound": "Cc1cc(-c2ccc(N(C)C)cc2)cc(-c2ccc(N(C)C)cc2)[s+]1.[I-]", "note": "[Compound 2, 2′,4′-bis(4-N,N-dimethylaminophenyl) 6′-methylthiopyrilium iodide]", "values": [
      {"measurement": "log10 inactivation", "setting": "E. coli; [6]", "result": "7.1 ± 0.5", "unit": "log10"},
      {"measurement": "log10 inactivation of extracellular BVDV", "setting": "extracellular BVDV", "result": "> 6", "unit": "log10"},
      {"measurement": "ATP level", "setting": "RBCs [1]", "result": "2.63±0.07", "unit": "μmole/g Hb"},
      {"measurement": "morphology score", "setting": "RBCs [1]", "result": "94.5±1.5"},
      {"measurement": "log10 inactivation of extracellular DHBV", "setting": "extracellular DHBV", "result": "> 5.8", "unit": "log10"},
      {"measurement": "log10 inactivation", "setting": "S. marcescens; n = 4", "result": "6.2 ± 1.0", "unit": "log10"},
      {"measurement": "log10 inactivation", "setting": "Y. enterocolitica; [6]", "result": "5.9 ± 0.6", "unit": "log10"},
      {"measurement": "log10 inactivation", "setting": "S. liquefaciens; n = 4", "result": ">7.1", "unit": "log10"},
      {"measurement": "log10 inactivation", "setting": "S. epidermidis; n = 4", "result": ">7.6", "unit": "log10"},
      {"measurement": "inactivation of all tested viruses", "setting": "all tested viruses", "result": "inactivated to the limit of assay detection"},
      {"measurement": "log10 inactivation of extracellular HIV", "setting": "extracellular HIV", "result": "> 7.5", "unit": "log10"},
      {"measurement": "log10 inactivation of intracellular HIV", "setting": "intracellular HIV", "result": "6.2±0.1", "unit": "log10"},
      {"measurement": "log10 inactivation of extracellular VSV", "setting": "extracellular VSV", "result": "> 8.4", "unit": "log10"},
      {"measurement": "log10 inactivation of 5 of 7 tested organisms", "setting": "[2]", "result": "> 6", "unit": "log10"},
      {"measurement": "log10 inactivation of all tested organisms", "setting": "[2]", "result": "> 4", "unit": "log10"},
      {"measurement": "potassium in the supernatant", "setting": "red cells [3]", "result": "16.6 ± 4.2", "unit": "mM"},
      {"measurement": "potassium released to the supernatant", "setting": "red cells [3]", "result": "38.4 ± 4.4", "unit": "mM"},
      {"measurement": "log10 inactivation", "setting": "P. fluorescens; n = 4", "result": "5.4 ± 1.0", "unit": "log10"},
      {"measurement": "hemolysis following 42 day 1-6° C. storage", "setting": "red cells [4]; n=10", "result": 0.29, "unit": "%"},
      {"measurement": "log10 inactivation", "setting": "S. aureus; [6]", "result": ">6.3", "unit": "log10"},
      {"measurement": "log10 inactivation of extracellular PRV", "setting": "extracellular PRV", "result": "> 6.3", "unit": "log10"}
    ]},
    {"compound": "Cc1cc(-c2ccc(N(C)C)cc2)cc(-c2ccc(N(C)C)cc2)[s+]1", "note": "[Compound 2, 2′,4′-bis(4-N,N-dimethylaminophenyl) 6′-methylthiopyrilium iodide]", "values": [
      {"measurement": "log10 inactivation", "setting": "E. coli; [7]", "result": ">7.9", "unit": "log10"},
      {"measurement": "log10 inactivation", "setting": "D. radiodurans", "result": ">7.9", "unit": "log10"},
      {"measurement": "log10 inactivation of intracellular VSV", "setting": "intracellular VSV", "result": 4.0, "unit": "log10"},
      {"measurement": "log10 VSV inact. (intracellular)", "setting": "intracellular VSV; 160 μM", "result": ">5", "unit": "log10"},
      {"measurement": "log10 inactivation", "setting": "S. marcescens", "result": ">6.9", "unit": "log10"},
      {"measurement": "log10 inactivation", "setting": "Y. enterocolitica; [7]", "result": ">7.5", "unit": "log10"},
      {"measurement": "log10 inactivation", "setting": "S. liquefaciens", "result": ">7.4", "unit": "log10"},
      {"measurement": "log10 inactivation", "setting": "S. epidermidis", "result": ">7.9", "unit": "log10"},
      {"measurement": "log10 inactivation of extracellular VSV", "setting": "extracellular VSV", "result": "> 7", "unit": "log10"},
      {"measurement": "Log10 VSV inact. (extracellular)", "setting": "extracellular VSV; 10 μM", "result": 1.3, "unit": "log10"},
      {"measurement": "Log10 VSV inact. (extracellular)", "setting": "extracellular VSV; 20 μM", "result": 2.2, "unit": "log10"},
      {"measurement": "Log10 VSV inact. (extracellular)", "setting": "extracellular VSV; 30 μM", "result": 2.7, "unit": "log10"},
      {"measurement": "Log10 VSV inact. (extracellular)", "setting": "extracellular VSV; 60 μM", "result": 4.8, "unit": "log10"},
      {"measurement": "Log10 VSV inact. (extracellular)", "setting": "extracellular VSV; 90 μM", "result": 5.7, "unit": "log10"},
      {"measurement": "Log10 VSV inact. (extracellular)", "setting": "extracellular VSV; 160 μM", "result": ">7", "unit": "log10"},
      {"measurement": "bacteria remaining after inactivation (limit of detection)", "setting": "[2]", "result": "< 1", "unit": "CFU/mL"},
      {"measurement": "log10 inactivation", "setting": "P. fluorescens", "result": ">7.7", "unit": "log10"},
      {"measurement": "hemolysis", "setting": "red cells [4]", "result": "< 1", "unit": "%"},
      {"measurement": "Hemolysis (%) (day 42)", "setting": "red cells [4]; 160 μM", "result": 0.45, "unit": "%"},
      {"measurement": "log10 inactivation", "setting": "S. aureus; [7]", "result": ">6.8", "unit": "log10"}
    ]},
    {"compound": "OCCN(CCO)c1nc(N2CCCCC2)c2nc(N(CCO)CCO)nc(N3CCCCC3)c2n1", "note": "[dipyridamole, reference compound]", "values": [
      {"measurement": "TP binding sites in RBCs blocked by DP", "setting": "RBCs [5]", "result": "approximately 36%"}
    ]}
  ]
}
